According to US8067424B2, “Selective inhibitors for cyclin-dependent kinases” (Emory University, priority 2007, dated 2011):
Where two headings read alike, the source gives them in different places.

Experiments:
AURORA B = AURORA B (Homo sapiens, UniProt Q96GD4); test: Kinase screen: Aurora B assay; type: biochemical; settings: read-out: Mean Remaining Enzyme Activity (%)
Procedure: Generally, the same procedure was used for all assays. Since the total assay volume was 25.5 microliters, 0.5 microliters of inhibitors at 51× assay concentration were added to the plates before any other addition.
The basic procedure was to add 0.5 microliters inhibitor/control in DMSO to plate. Fifteen microliters of enzyme/substrate/buffer mix were added and incubated for 5 min. Ten microliters MgATP at the relevant concentration were added and incubated for 30 min. The assay was stopped by adding 5 microliters of 3% orthophosphoric acid. The assay was transferred to a p81 filter plate and read in a scintillation counter of 30 sec/well. Note that this assay procedure was not followed for MKK1, which instead involved a two-step assay, and PKC alpha, which required the addition of lipid vesicles.
Aurora B assay: Aurora B (5-20 mU diluted in 50 mM Tris pH 7.5, 0.1 mM EGTA, 0.1% b-mercaptoethanol, 1 mg/ml BSA) was assayed against a substrate peptide ([…]) (SEQ ID NO: 26) in a final volume of […] containing 50 mM Tris pH 7.5, 0.05% b-mercaptoethanol, 300 μM substrate peptide, 10 mM magnesium acetate and 0.02 mM [33P-g-ATP] (50-1000 cpm/pmole) and incubated for 30 min at room temperature. Assays were stopped by addition of 5 μl of 0.5 M (3%) orthophosphoric acid and then harvested onto P81 Unifilter plates with a wash buffer of 50 mM orthophosphoric acid.

RPMI-8226 [1] = test: cells; settings: Homo sapiens
BT-549 [2] = tested on: BT-549
RPMI-8226 [3] = tested on: RPMI-8226
UACC-257 = test: cells; settings: Homo sapiens
BT-549 [4] = test: cells; settings: Homo sapiens
MDA-MB-231/ATCC = test: cells; settings: Homo sapiens
OVCAR-5 = test: cells; settings: Homo sapiens
TK-10 = test: cells; settings: Homo sapiens
[5] = DU-145, log10 concentration −4.0
[6] = DU-145, log10 concentration −5.0
[7] = DU-145, log10 concentration −6.0
[8] = DU-145, log10 concentration −7.0
[9] = DU-145, log10 concentration −8.0
[10] = 786-0, log10 concentration −4.0
[11] = 786-0, log10 concentration −5.0
[12] = 786-0, log10 concentration −6.0
[13] = 786-0, log10 concentration −7.0
[14] = 786-0, log10 concentration −8.0
[15] = BT-549, log10 concentration −4.0
[16] = BT-549, log10 concentration −5.0
[17] = BT-549, log10 concentration −6.0
[18] = BT-549, log10 concentration −7.0
[19] = BT-549, log10 concentration −8.0
[20] = UACC-62, log10 concentration −4.0
[21] = UACC-62, log10 concentration −5.0
[22] = UACC-62, log10 concentration −6.0
[23] = UACC-62, log10 concentration −7.0
[24] = UACC-62, log10 concentration −8.0
[25] = RPMI-8226, log10 concentration −4.0
[26] = RPMI-8226, log10 concentration −5.0
[27] = RPMI-8226, log10 concentration −6.0
[28] = RPMI-8226, log10 concentration −7.0
[29] = RPMI-8226, log10 concentration −8.0
[30] = SF-295, log10 concentration −4.0
[31] = SF-295, log10 concentration −5.0
[32] = SF-295, log10 concentration −6.0
[33] = SF-295, log10 concentration −7.0
[34] = SF-295, log10 concentration −8.0

Sequence of AURORA B (Q96GD4 whole entry): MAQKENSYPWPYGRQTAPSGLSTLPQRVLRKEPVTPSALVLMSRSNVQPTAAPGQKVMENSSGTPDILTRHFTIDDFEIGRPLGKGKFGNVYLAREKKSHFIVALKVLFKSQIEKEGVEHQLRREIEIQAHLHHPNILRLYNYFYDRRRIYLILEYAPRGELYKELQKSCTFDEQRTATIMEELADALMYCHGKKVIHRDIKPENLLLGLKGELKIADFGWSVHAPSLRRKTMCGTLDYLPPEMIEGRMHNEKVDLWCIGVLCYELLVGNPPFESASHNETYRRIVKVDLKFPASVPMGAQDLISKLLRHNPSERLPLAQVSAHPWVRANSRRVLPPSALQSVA

CC(C)c1cnn2c(NCc3ccccc3)cc(NCCCCCCCN)nc12 [BS-181]
remaining activity at 10 µM (AURORA B): 95%

CC(C)c1cnn2c(NCc3ccccc3)cc(N[C@@H](CO)[C@H](O)CO)nc12 [ICEC0318, (3S)-3-(7-(Benzylamino)-3-isopropylpyrazolo[1,5-a]pyrimidin-5-ylamino)butane-1,2,4-triol]
GI50 (RPMI-8226 [1]; RPMI-8226): 227 nM | CC50 (RPMI-8226 [1]; RPMI-8226, read-out: LC50): > 100000 nM | TGI (DU-145; DU-145 (Prostate Cancer)): >1.00E−4 | Mean Optical Densities (DU-145; [5]): 0.204 | Percent Growth (DU-145; [5]): 3% | Mean Optical Densities (DU-145; [6]): 0.250 | Percent Growth (DU-145; [6]): 12% | Mean Optical Densities (DU-145; [7]): 0.277 | Percent Growth (DU-145; [7]): 17% | Mean Optical Densities (DU-145; [8]): 0.688 | Percent Growth (DU-145; [8]): 95% | Mean Optical Densities (DU-145; [9]): 0.732 | Percent Growth (DU-145; [9]): 103% | TGI (786-0; 786-0 (Renal Cancer)): 8.99E−7 | Mean Optical Densities (786-0; [10]): 0.491 | Percent Growth (786-0; [10]): −21% | Mean Optical Densities (786-0; [11]): 0.598 | Percent Growth (786-0; [11]): −4% | Mean Optical Densities (786-0; [12]): 0.592 | Percent Growth (786-0; [12]): −5% | Mean Optical Densities (786-0; [13]): 1.769 | Percent Growth (786-0; [13]): 98% | Mean Optical Densities (786-0; [14]): 1.824 | Percent Growth (786-0; [14]): 103% | GI50 (786-0; Homo sapiens, 786-0): 293 nM | CC50 (786-0; Homo sapiens, 786-0, read-out: LC50): > 100000 nM | TGI (PC-3; PC-3 (Prostate Cancer)): >1.00E−4 | Mean Optical Densities (PC-3; PC-3, log10 concentration −4.0): 0.173 | Percent Growth (PC-3; PC-3, log10 concentration −4.0): 2% | Mean Optical Densities (PC-3; PC-3, log10 concentration −5.0): 0.200 | Percent Growth (PC-3; PC-3, log10 concentration −5.0): 9% | Mean Optical Densities (PC-3; PC-3, log10 concentration −6.0): 0.218 | Percent Growth (PC-3; PC-3, log10 concentration −6.0): 14% | Mean Optical Densities (PC-3; PC-3, log10 concentration −7.0): 0.486 | Percent Growth (PC-3; PC-3, log10 concentration −7.0): 85% | Mean Optical Densities (PC-3; PC-3, log10 concentration −8.0): 0.532 | Percent Growth (PC-3; PC-3, log10 concentration −8.0): 97% | TGI (BT-549 [2]; BT-549 (Breast Cancer)): 8.82E−7 | Mean Optical Densities (BT-549 [2]; [15]): 0.803 | Percent Growth (BT-549 [2]; [15]): −10% | Mean Optical Densities (BT-549 [2]; [16]): 0.805 | Percent Growth (BT-549 [2]; [16]): −9% | Mean Optical Densities (BT-549 [2]; [17]): 0.843 | Percent Growth (BT-549 [2]; [17]): −5% | Mean Optical Densities (BT-549 [2]; [18]): 1.769 | Percent Growth (BT-549 [2]; [18]): 88% | Mean Optical Densities (BT-549 [2]; [19]): 1.968 | Percent Growth (BT-549 [2]; [19]): 108% | TGI (UACC-62; UACC-62 (Melanoma)): 3.16E−7 | Mean Optical Densities (UACC-62; [20]): 0.078 | Percent Growth (UACC-62; [20]): −90% | Mean Optical Densities (UACC-62; [21]): 0.165 | Percent Growth (UACC-62; [21]): −78% | Mean Optical Densities (UACC-62; [22]): 0.142 | Percent Growth (UACC-62; [22]): −81% | Mean Optical Densities (UACC-62; [23]): 1.821 | Percent Growth (UACC-62; [23]): 81% | Mean Optical Densities (UACC-62; [24]): 2.110 | Percent Growth (UACC-62; [24]): 102% | TGI (U251; U251 (CNS Cancer)): >1.00E−4 | Mean Optical Densities (U251; U251, log10 concentration −4.0): 0.262 | Percent Growth (U251; U251, log10 concentration −4.0): 2% | Mean Optical Densities (U251; U251, log10 concentration −5.0): 0.289 | Percent Growth (U251; U251, log10 concentration −5.0): 5% | Mean Optical Densities (U251; U251, log10 concentration −6.0): 0.299 | Percent Growth (U251; U251, log10 concentration −6.0): 6% | Mean Optical Densities (U251; U251, log10 concentration −7.0): 0.999 | Percent Growth (U251; U251, log10 concentration −7.0): 81% | Mean Optical Densities (U251; U251, log10 concentration −8.0): 1.168 | Percent Growth (U251; U251, log10 concentration −8.0): 99% | TGI (RPMI-8226 [3]; RPMI-8226 (Leukemia)): >1.00E−4 | Mean Optical Densities (RPMI-8226 [3]; [25]): 0.249 | Percent Growth (RPMI-8226 [3]; [25]): 7% | Mean Optical Densities (RPMI-8226 [3]; [26]): 0.302 | Percent Growth (RPMI-8226 [3]; [26]): 18% | Mean Optical Densities (RPMI-8226 [3]; [27]): 0.311 | Percent Growth (RPMI-8226 [3]; [27]): 19% | Mean Optical Densities (RPMI-8226 [3]; [28]): 0.556 | Percent Growth (RPMI-8226 [3]; [28]): 67% | Mean Optical Densities (RPMI-8226 [3]; [29]): 0.595 | Percent Growth (RPMI-8226 [3]; [29]): 75% | GI50 (UACC-257; UACC-257): 344 nM | CC50 (UACC-257; UACC-257, read-out: LC50): > 100000 nM | GI50 (BT-549 [4]; BT-549): 258 nM | CC50 (BT-549 [4]; BT-549, read-out: LC50): > 100000 nM | TGI (SF-295; SF-295 (CNS Cancer)): 3.10E−5 | Mean Optical Densities (SF-295; [30]): 0.371 | Percent Growth (SF-295; [30]): −4% | Mean Optical Densities (SF-295; [31]): 0.427 | Percent Growth (SF-295; [31]): 4% | Mean Optical Densities (SF-295; [32]): 0.447 | Percent Growth (SF-295; [32]): 6% | Mean Optical Densities (SF-295; [33]): 1.288 | Percent Growth (SF-295; [33]): 83% | Mean Optical Densities (SF-295; [34]): 1.492 | Percent Growth (SF-295; [34]): 101% | GI50 (MDA-MB-231/ATCC; MDA-MB-231): 438 nM | CC50 (MDA-MB-231/ATCC; MDA-MB-231, read-out: LC50): > 100000 nM | GI50 (OVCAR-5; OVCAR-5): 305 nM | CC50 (OVCAR-5; OVCAR-5, read-out: LC50): > 100000 nM | GI50 (TK-10; TK-10): 377 nM | CC50 (TK-10; TK-10, read-out: LC50): > 100000 nM
